# Measured values as given in PubChem BioAssay (NCI).
#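 GI50 = concentration required for 50% inhibition of growth. TGI: total growth inhibition.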
# Columns and labels:
# Assay in all cases: NCI tumour cell line growth inhibition, 384-well format
# [1] = tested on: 786-0 renal
# [2] = tested on: A498 renal
# [3] = tested on: A549 NSCLC
# [4] = tested on: ACHN renal
# [5] = tested on: BT-549 breast
# [6] = tested on: CAKI-1 renal
# [7] = tested on: CCRF-CEM leukemia
# [8] = tested on: COLO 205 colon
# [9] = tested on: DU-145 prostate
# [10] = tested on: HCC-2998 colon
# [11] = tested on: HCT-116 colon
# [12] = tested on: HCT-15 colon
# [13] = tested on: HL-60(TB) leukemia
# [14] = tested on: HOP-62 NSCLC
# [15] = tested on: HOP-92 NSCLC
# [16] = tested on: HT29 colon
# [17] = tested on: IGROV1 ovarian
# [18] = tested on: K-562 leukemia
# [19] = tested on: KM12 colon
# [20] = tested on: LOX IMVI melanoma
# [21] = tested on: M14 melanoma
# [22] = tested on: MDA-MB-435 melanoma
# [23] = tested on: MOLT-4 leukemia
# [24] = tested on: NCI-H226 lung
# [25] = tested on: NCI-H322M lung
# [26] = tested on: NCI-H460 NSCLC
# [27] = tested on: NCI/ADR-RES ovarian
# [28] = tested on: OVCAR-3 ovarian
# [29] = tested on: OVCAR-5 ovarian
# [30] = tested on: OVCAR-8 ovarian
# [31] = tested on: PC-3 prostate
# [32] = tested on: RPMI-8226 leukemia
# [33] = tested on: RXF 393 renal
# [34] = tested on: SF-268 CNS
# [35] = tested on: SF-295 CNS
# [36] = tested on: SF-539 CNS
# [37] = tested on: SK-MEL-28 melanoma
# [38] = tested on: SK-MEL-5 melanoma
# [39] = tested on: SN12C renal
# [40] = tested on: SNB-19 CNS
# [41] = tested on: SW-620 colon
# [42] = tested on: T-47D breast
# [43] = tested on: TK-10 renal
# [44] = tested on: U251 glioblastoma
# [45] = tested on: UACC-257 melanoma
# [46] = tested on: UACC-62 melanoma
# [47] = tested on: UO-31 renal
# [48] = tested on: EKVX NSCLC
# [49] = tested on: HS 578T breast
# [50] = tested on: MALME-3M melanoma
# [51] = tested on: MCF7 breast
# [52] = tested on: MDA-MB-231 breast
# [53] = tested on: MDA-MB-468 breast
# [54] = tested on: NCI-H23 lung
# [55] = tested on: NCI-H522 lung
# [56] = tested on: OVCAR-4 ovarian
# [57] = tested on: SK-OV-3 ovarian
# [58] = tested on: SNB-75 CNS
# [59] = tested on: SR leukemia
smiles,measurement,setting,value
CN(CCO)CC[C@H](CSc1ccccc1)Nc1ccc(S(=O)(=O)NC(=O)c2ccc(N3CCC([C@@H](O)c4ccccc4-c4ccc(Cl)cc4)CC3)cc2)cc1S(=O)(=O)C(F)(F)F,GI50,[1],2.51 µM
same,TGI,[1],6.68 µM
same,GI50,[2],1.73 µM
same,TGI,[2],6.09 µM
same,GI50,[3],> 100 µM
same,TGI,[3],> 100 µM
same,GI50,[4],22.6 µM
same,TGI,[4],> 100 µM
same,GI50,[5],3.45 µM
same,TGI,[5],10.3 µM
same,GI50,[6],5.42 µM
same,TGI,[6],15.9 µM
same,GI50,[7],< 0.01 µM
same,TGI,[7],0.0137 µM
same,GI50,[8],0.807 µM
same,TGI,[8],2.13 µM
same,GI50,[9],18.6 µM
same,TGI,[9],55.9 µM
same,GI50,[10],< 0.01 µM
same,TGI,[10],0.199 µM
same,GI50,[11],2.97 µM
same,TGI,[11],9.36 µM
same,GI50,[12],64.9 µM
same,TGI,[12],> 100 µM
same,GI50,[13],< 0.01 µM
same,TGI,[13],< 0.01 µM
same,GI50,[14],5.33 µM
same,TGI,[14],16.7 µM
same,GI50,[15],< 0.01 µM
same,TGI,[15],0.301 µM
same,GI50,[16],4.35 µM
same,TGI,[16],15.5 µM
same,GI50,[17],1.6 µM
same,TGI,[17],3.25 µM
same,GI50,[18],3.04 µM
same,TGI,[18],8.08 µM
same,GI50,[19],2.69 µM
same,TGI,[19],6.67 µM
same,GI50,[20],1.96 µM
same,TGI,[20],3.62 µM
same,GI50,[21],2.82 µM
same,TGI,[21],7.47 µM
same,GI50,[22],3.42 µM
same,TGI,[22],9.42 µM
same,GI50,[23],< 0.01 µM
same,TGI,[23],< 0.01 µM
same,GI50,[24],1.76 µM
same,TGI,[24],6.04 µM
same,GI50,[25],2.72 µM
same,TGI,[25],9.6 µM
same,GI50,[26],13.7 µM
same,TGI,[26],27.9 µM
same,GI50,[27],> 100 µM
same,TGI,[27],> 100 µM
same,GI50,[28],3.54 µM
same,TGI,[28],12.2 µM
same,GI50,[29],5 µM
same,TGI,[29],21.3 µM
same,GI50,[30],11.9 µM
same,TGI,[30],24.4 µM
same,GI50,[31],2.43 µM
same,TGI,[31],5.71 µM
same,GI50,[32],< 0.01 µM
same,TGI,[32],< 0.01 µM
same,GI50,[33],< 0.01 µM
same,TGI,[33],0.53 µM
same,GI50,[34],4.16 µM
same,TGI,[34],13.9 µM
same,GI50,[35],2.16 µM
same,TGI,[35],5.23 µM
same,GI50,[36],4.11 µM
same,TGI,[36],14.7 µM
same,GI50,[37],2.31 µM
same,TGI,[37],4.96 µM
same,GI50,[38],1.81 µM
same,TGI,[38],6.32 µM
same,GI50,[39],4.04 µM
same,TGI,[39],13.9 µM
same,GI50,[40],4.85 µM
same,TGI,[40],17.2 µM
same,GI50,[41],4.48 µM
same,TGI,[41],16.2 µM
same,GI50,[42],3.88 µM
same,TGI,[42],14.6 µM
same,GI50,[43],3.78 µM
same,TGI,[43],15.9 µM
same,GI50,[44],2.62 µM
same,TGI,[44],6.48 µM
same,GI50,[45],2.29 µM
same,TGI,[45],13.6 µM
same,GI50,[46],2.32 µM
same,TGI,[46],5.75 µM
same,GI50,[47],> 100 µM
same,TGI,[47],> 100 µM
O=C(CCCCCCNC(=O)c1cnc(N(c2ccccc2)c2ccccc2)nc1)NO,GI50,[2],3.49 µM
same,TGI,[2],16.2 µM
same,GI50,[3],10.1 µM
same,TGI,[3],25 µM
same,GI50,[4],7.93 µM
same,TGI,[4],22.1 µM
same,GI50,[5],3.08 µM
same,TGI,[5],13.3 µM
same,GI50,[6],4.36 µM
same,TGI,[6],16.6 µM
same,GI50,[8],2 µM
same,TGI,[8],3.9 µM
same,GI50,[9],2.18 µM
same,TGI,[9],5.88 µM
same,GI50,[48],11.3 µM
same,TGI,[48],43.8 µM
same,GI50,[10],2.7 µM
same,TGI,[10],8.93 µM
same,GI50,[11],2.79 µM
same,TGI,[11],10.5 µM
same,GI50,[12],13 µM
same,TGI,[12],41.6 µM
same,GI50,[13],2.36 µM
same,TGI,[13],3.82 µM
same,GI50,[14],2.31 µM
same,TGI,[14],10.3 µM
same,GI50,[15],3.26 µM
same,TGI,[15],13.4 µM
same,GI50,[49],1.97 µM
same,TGI,[49],6.37 µM
same,GI50,[16],3.14 µM
same,TGI,[16],13.2 µM
same,GI50,[17],2.13 µM
same,TGI,[17],6.57 µM
same,GI50,[19],3.53 µM
same,TGI,[19],16.1 µM
same,GI50,[20],1.97 µM
same,TGI,[20],4.3 µM
same,GI50,[21],3.7 µM
same,TGI,[21],14.8 µM
same,GI50,[50],1.49 µM
same,TGI,[50],5.49 µM
same,GI50,[51],2.18 µM
same,TGI,[51],11.8 µM
same,GI50,[52],2.19 µM
same,TGI,[52],6.61 µM
same,GI50,[22],2.38 µM
same,TGI,[22],5.28 µM
same,GI50,[53],1.5 µM
same,TGI,[53],4.12 µM
same,GI50,[23],1.34 µM
same,TGI,[23],2.62 µM
same,GI50,[24],10.7 µM
same,TGI,[24],26.2 µM
same,GI50,[54],4.27 µM
same,TGI,[54],21.2 µM
same,GI50,[25],3.52 µM
same,TGI,[25],16.9 µM
same,GI50,[26],2.22 µM
same,TGI,[26],11.3 µM
same,GI50,[55],2.14 µM
same,TGI,[55],8.63 µM
same,GI50,[27],8.89 µM
same,TGI,[27],84.1 µM
same,GI50,[28],2.01 µM
same,TGI,[28],8.19 µM
same,GI50,[56],3.22 µM
same,TGI,[56],13 µM
same,GI50,[29],1.84 µM
same,TGI,[29],4.8 µM
same,GI50,[30],2.12 µM
same,TGI,[30],13.9 µM
same,GI50,[31],2.52 µM
same,TGI,[31],8.1 µM
same,GI50,[32],0.573 µM
same,TGI,[32],1.81 µM
same,GI50,[33],4.37 µM
same,TGI,[33],17.4 µM
same,GI50,[34],2.86 µM
same,TGI,[34],10.1 µM
same,GI50,[35],4.5 µM
same,TGI,[35],15.6 µM
same,GI50,[36],5.25 µM
same,TGI,[36],22.4 µM
same,GI50,[37],3.23 µM
same,TGI,[37],12.8 µM
same,GI50,[38],2.02 µM
same,TGI,[38],4.16 µM
same,GI50,[57],2.92 µM
same,TGI,[57],14.1 µM
same,GI50,[39],2.48 µM
same,TGI,[39],8.92 µM
same,GI50,[40],3.59 µM
same,TGI,[40],12.9 µM
same,GI50,[58],4.65 µM
same,TGI,[58],30.3 µM
same,GI50,[59],0.323 µM
same,TGI,[59],1.2 µM
same,GI50,[42],1.73 µM
same,TGI,[42],4.32 µM
same,GI50,[43],3.37 µM
same,TGI,[43],12.5 µM
same,GI50,[44],1.85 µM
same,TGI,[44],4.3 µM
same,GI50,[45],1.07 µM
same,TGI,[45],5.12 µM
same,GI50,[46],1.55 µM
same,TGI,[46],4.13 µM
